Reference: patent US9708314B2, “Heterocyclic amide compound” (NISSAN CHEMICAL INDUSTRIES, LTD., priority 2013, dated 2017)

How the values were obtained:
Format in all cases: in vivo
[1] = test system: Amaranthus retroflexus; test: Test Example 4: herbicidal effect by application to foliage (diluvial soil, plastic box); details: Application herbicide amount 320 g/ha; foliage application
Outline: (§1)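 Read-out is a 0–5 visual grade of herbicidal ratio (5: ≥90%, almost withered; 0: ≤5%) taken three weeks after treatment. Compound was applied as a diluted emulsion to stem and leaf parts of 14-day greenhouse-grown plants (25° C. to 30° C.) at rates expressed as g/ha.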

[2] = test system: Alopecurus myosuroides; test: as above; details: Application herbicide amount 320 g/ha; foliage application
Outline: as §1

[3] = test system: Chenopodium album; test: as above; details: Application herbicide amount 320 g/ha; foliage application
Outline: as §1

[4] = test system: Avena fatua; test: as above; details: Application herbicide amount 320 g/ha; foliage application
Outline: as §1

[5] = test system: Galium spurium; test: as above; details: Application herbicide amount 320 g/ha; foliage application
Outline: as §1

[6] = test system: Apera spica-venti.; test: as above; details: Application herbicide amount 320 g/ha; foliage application
Outline: as §1

[7] = test system: Abutilon theophrasti; test: as above; details: Application herbicide amount 320 g/ha; foliage application
Outline: as §1

[8] = test system: Digitaria ciliaris; test: as above; details: Application herbicide amount 320 g/ha; foliage application
Outline: as §1

[9] = test system: Veronica persica; test: as above; details: Application herbicide amount 320 g/ha; foliage application
Outline: as §1

[10] = test system: Echinochloa crus-galli var. crus-galli; test: as above; details: Application herbicide amount 320 g/ha; foliage application
Outline: as §1

[11] = test system: Setaria viridis; test: as above; details: Application herbicide amount 320 g/ha; foliage application
Outline: as §1

[12] = test system: Lolium multiflorum Lam.; test: as above; details: Application herbicide amount 320 g/ha; foliage application
Outline: as §1

[13] = test system: Echinochloa oryzacola Vasing.; test: Test Example 2: herbicidal activity, application during weed generation in submerged conditions; details: Eighteenth Table; application herbicide amount 320 g/ha
Outline: (§2)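 Paddy-type pot test: flooded soil, 4 cm depth, greenhouse 25–30 °C. Emulsion formulation diluted in water, applied to water surface at 1–2 leaf stage; rate expressed as g/ha. Read-out at 3 wk, 0–5 score.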

[14] = test system: Scirpus juncoides; test: as above; details: Eighteenth Table; application herbicide amount 320 g/ha
Outline: as §2

[15] = test system: Monochoria vaginalis; test: as above; details: Eighteenth Table; application herbicide amount 320 g/ha
Outline: as §2

SMILES: O=C(Nc1nnco1)c1ccc(C(F)(F)F)n2c(C3CC3)nnc12 [1-144]
- N (Amaranthus retroflexus) herbicidal effect grade [1]: 4 (Herbicidal ratio of 70% or more and less than 90%)
- J (Alopecurus myosuroides) herbicidal effect grade [2]: 1 (Herbicidal ratio of 5% or more and less than 20%)
- O (Chenopodium album) herbicidal effect grade [3]: 5 (Herbicidal ratio of 90% or more (almost completely withered))
- I (Avena fatua) herbicidal effect grade [4]: 2 (Herbicidal ratio of 20% or more and less than 40%)
- Q (Galium spurium) herbicidal effect grade [5]: 3 (Herbicidal ratio of 40% or more and less than 70%)
- L (Apera spica-venti.) herbicidal effect grade [6]: 0 (Herbicidal ratio of 5% or less (almost no effect))
- M (Abutilon theophrasti) herbicidal effect grade [7]: 2 (Herbicidal ratio of 20% or more and less than 40%)
- F (Digitaria ciliaris) herbicidal effect grade [8]: 3 (Herbicidal ratio of 40% or more and less than 70%)
- R (Veronica persica) herbicidal effect grade [9]: 4 (Herbicidal ratio of 70% or more and less than 90%)
- H (Echinochloa crus-galli var. crus-galli) herbicidal effect grade [10]: 5 (Herbicidal ratio of 90% or more (almost completely withered))
- G (Setaria viridis) herbicidal effect grade [11]: 2 (Herbicidal ratio of 20% or more and less than 40%)
- K (Lolium multiflorum Lam.) herbicidal effect grade [12]: 1 (Herbicidal ratio of 5% or more and less than 20%)
- A (Echinochloa oryzicola Vasing.) herbicidal ratio grade [13]: 4 (Herbicidal ratio of 70% or more and less than 90%)
- B (Scirpus juncoides) herbicidal ratio grade [14]: 4 (Herbicidal ratio of 70% or more and less than 90%)
- C (Monochoria vaginalis) herbicidal ratio grade [15]: 3 (Herbicidal ratio of 40% or more and less than 70%)

SMILES: Cc1nnc(NC(=O)c2ccc(C(F)(F)F)n3c(N4CCSCC4)nnc23)o1 [1-118]
- N (Amaranthus retroflexus) herbicidal effect grade [1]: 4 (Herbicidal ratio of 70% or more and less than 90%)
- J (Alopecurus myosuroides) herbicidal effect grade [2]: 1 (Herbicidal ratio of 5% or more and less than 20%)
- O (Chenopodium album) herbicidal effect grade [3]: 5 (Herbicidal ratio of 90% or more (almost completely withered))
- I (Avena fatua) herbicidal effect grade [4]: 3 (Herbicidal ratio of 40% or more and less than 70%)
- Q (Galium spurium) herbicidal effect grade [5]: 4 (Herbicidal ratio of 70% or more and less than 90%)
- L (Apera spica-venti.) herbicidal effect grade [6]: 3 (Herbicidal ratio of 40% or more and less than 70%)
- M (Abutilon theophrasti) herbicidal effect grade [7]: 4 (Herbicidal ratio of 70% or more and less than 90%)
- F (Digitaria ciliaris) herbicidal effect grade [8]: 5 (Herbicidal ratio of 90% or more (almost completely withered))
- R (Veronica persica) herbicidal effect grade [9]: 5 (Herbicidal ratio of 90% or more (almost completely withered))
- H (Echinochloa crus-galli var. crus-galli) herbicidal effect grade [10]: 5 (Herbicidal ratio of 90% or more (almost completely withered))
- G (Setaria viridis) herbicidal effect grade [11]: 5 (Herbicidal ratio of 90% or more (almost completely withered))
- K (Lolium multiflorum Lam.) herbicidal effect grade [12]: 1 (Herbicidal ratio of 5% or more and less than 20%)
- A (Echinochloa oryzicola Vasing.) herbicidal ratio grade [13]: 2 (Herbicidal ratio of 20% or more and less than 40%)
- B (Scirpus juncoides) herbicidal ratio grade [14]: 3 (Herbicidal ratio of 40% or more and less than 70%)
- C (Monochoria vaginalis) herbicidal ratio grade [15]: 0 (Herbicidal ratio of 5% or less (almost no effect))

SMILES: Cc1nnc(NC(=O)c2ccc(C(F)(F)F)n3c(N(C)C4CCCCC4)nnc23)o1 [1-133]
- N (Amaranthus retroflexus) herbicidal effect grade [1]: 3 (Herbicidal ratio of 40% or more and less than 70%)
- J (Alopecurus myosuroides) herbicidal effect grade [2]: 0 (Herbicidal ratio of 5% or less (almost no effect))
- O (Chenopodium album) herbicidal effect grade [3]: 4 (Herbicidal ratio of 70% or more and less than 90%)
- I (Avena fatua) herbicidal effect grade [4]: 0 (Herbicidal ratio of 5% or less (almost no effect))
- Q (Galium spurium) herbicidal effect grade [5]: 1 (Herbicidal ratio of 5% or more and less than 20%)
- L (Apera spica-venti.) herbicidal effect grade [6]: 0 (Herbicidal ratio of 5% or less (almost no effect))
- M (Abutilon theophrasti) herbicidal effect grade [7]: 3 (Herbicidal ratio of 40% or more and less than 70%)
- F (Digitaria ciliaris) herbicidal effect grade [8]: 3 (Herbicidal ratio of 40% or more and less than 70%)
- R (Veronica persica) herbicidal effect grade [9]: 2 (Herbicidal ratio of 20% or more and less than 40%)
- H (Echinochloa crus-galli var. crus-galli) herbicidal effect grade [10]: 4 (Herbicidal ratio of 70% or more and less than 90%)
- G (Setaria viridis) herbicidal effect grade [11]: 0 (Herbicidal ratio of 5% or less (almost no effect))
- K (Lolium multiflorum Lam.) herbicidal effect grade [12]: 0 (Herbicidal ratio of 5% or less (almost no effect))
- A (Echinochloa oryzicola Vasing.) herbicidal ratio grade [13]: 2 (Herbicidal ratio of 20% or more and less than 40%)
- B (Scirpus juncoides) herbicidal ratio grade [14]: 2 (Herbicidal ratio of 20% or more and less than 40%)
- C (Monochoria vaginalis) herbicidal ratio grade [15]: 3 (Herbicidal ratio of 40% or more and less than 70%)

SMILES: COc1ccc(-c2nnc3c(C(=O)Nc4nnco4)ccc(C(F)(F)F)n23)cc1 [1-149]
- N (Amaranthus retroflexus) herbicidal effect grade [1]: 3 (Herbicidal ratio of 40% or more and less than 70%)
- J (Alopecurus myosuroides) herbicidal effect grade [2]: 1 (Herbicidal ratio of 5% or more and less than 20%)
- O (Chenopodium album) herbicidal effect grade [3]: 5 (Herbicidal ratio of 90% or more (almost completely withered))
- I (Avena fatua) herbicidal effect grade [4]: 1 (Herbicidal ratio of 5% or more and less than 20%)
- Q (Galium spurium) herbicidal effect grade [5]: 3 (Herbicidal ratio of 40% or more and less than 70%)
- L (Apera spica-venti.) herbicidal effect grade [6]: 2 (Herbicidal ratio of 20% or more and less than 40%)
- M (Abutilon theophrasti) herbicidal effect grade [7]: 3 (Herbicidal ratio of 40% or more and less than 70%)
- F (Digitaria ciliaris) herbicidal effect grade [8]: 4 (Herbicidal ratio of 70% or more and less than 90%)
- R (Veronica persica) herbicidal effect grade [9]: 5 (Herbicidal ratio of 90% or more (almost completely withered))
- H (Echinochloa crus-galli var. crus-galli) herbicidal effect grade [10]: 4 (Herbicidal ratio of 70% or more and less than 90%)
- G (Setaria viridis) herbicidal effect grade [11]: 3 (Herbicidal ratio of 40% or more and less than 70%)
- K (Lolium multiflorum Lam.) herbicidal effect grade [12]: 1 (Herbicidal ratio of 5% or more and less than 20%)
- A (Echinochloa oryzicola Vasing.) herbicidal ratio grade [13]: 3 (Herbicidal ratio of 40% or more and less than 70%)
- B (Scirpus juncoides) herbicidal ratio grade [14]: 3 (Herbicidal ratio of 40% or more and less than 70%)
- C (Monochoria vaginalis) herbicidal ratio grade [15]: 2 (Herbicidal ratio of 20% or more and less than 40%)
